Assay results reported in ChEMBL document CHEMBL1132128, “Novel halogenated sulfonamides inhibit the growth of multidrug resistant MCF-7/ADR cancer cells” (1999).

Columns and labels:
Type in all cases: functional
MCF7 = test: Cytotoxic activity against human breast tumor-derived MCF-7 cell lines
NCI/ADR-RES = test: Cytotoxic activity against MCF-7/ADR cell lines; conditions: Homo sapiens
HeLa = test: Cytotoxic activity against human cervical adenocarcinoma-derived HeLa cell lines

`CC(=O)O[C@H]1C(=O)[C@@]2(C)[C@H]([C@H](OC(=O)c3ccccc3)[C@]3(O)C[C@H](OC(=O)[C@H](O)[C@@H](NC(=O)c4ccccc4)c4ccccc4)C(C)=C1C3(C)C)[C@]1(OC(C)=O)CO[C@@H]1C[C@@H]2O` [PACLITAXEL] gave a GI50 (MCF7) of 1.1 nM, a GI50 (NCI/ADR-RES) greater than 50 µM and a GI50 (HeLa) of 7 nM.

`COc1ccc(NS(=O)(=O)c2c(F)c(F)cc(F)c2F)cc1` gave a GI50 (MCF7) greater than 50000 nM, a GI50 (NCI/ADR-RES) greater than 50 µM and a GI50 (HeLa) greater than 50000 nM.

`COc1ccc(NS(=O)(=O)c2cc(F)c(F)c(F)c2F)cc1` was tested, and the GI50 (MCF7) was 120 nM, the GI50 (NCI/ADR-RES) was 0.4 µM and the GI50 (HeLa) was 370 nM.

Molecule `COc1ccc(NS(=O)(=O)c2c(F)cc(F)cc2F)cc1` has a GI50 (MCF7) greater than 50000 nM, a GI50 (NCI/ADR-RES) greater than 50 µM and a GI50 (HeLa) greater than 50000 nM.

Work on `COc1ccc(NS(=O)(=O)c2c(F)cc(F)c(F)c2F)cc1` yielded a GI50 (MCF7) of 4500 nM, a GI50 (NCI/ADR-RES) of 4.5 µM and a GI50 (HeLa) of 5800 nM.

Molecule `COc1ccc(NS(=O)(=O)c2c(F)c(F)c(Br)c(F)c2F)cc1` has a GI50 (MCF7) of 36000 nM, a GI50 (NCI/ADR-RES) of 21 µM and a GI50 (HeLa) of 17000 nM.

Work on `COc1ccc(NS(=O)(=O)c2cc(F)c(Cl)c(F)c2F)cc1` yielded a GI50 (MCF7) of 44000 nM, a GI50 (NCI/ADR-RES) of 22 µM and a GI50 (HeLa) of 21000 nM.

`COc1ccc(NS(=O)(=O)c2c(F)c(F)c(F)c(F)c2F)cc1` showed a GI50 (MCF7) of 29 nM, a GI50 (NCI/ADR-RES) of 0.058 µM and a GI50 (HeLa) of 99 nM.

`COc1ccc(NS(=O)(=O)c2cc(F)c(F)c(F)c2)cc1` was tested, and the GI50 (MCF7) was 2000 nM, the GI50 (NCI/ADR-RES) was 3.4 µM and the GI50 (HeLa) was 3900 nM.

With `COc1ccc(NS(=O)(=O)c2ccc(F)c(F)c2F)cc1` the GI50 (MCF7) was greater than 50000 nM, the GI50 (NCI/ADR-RES) was greater than 50 µM and the GI50 (HeLa) was greater than 50000 nM.

`COc1ccc(NS(=O)(=O)c2c(F)c(F)c(F)c(Br)c2F)cc1` was tested, and the GI50 (MCF7) was 270 nM, the GI50 (NCI/ADR-RES) was 0.19 µM and the GI50 (HeLa) was 220 nM.

`COc1ccc(NS(=O)(=O)c2c(F)c(F)c(F)c(F)c2Br)cc1` was tested, and the GI50 (MCF7) was 39 nM, the GI50 (NCI/ADR-RES) was 0.16 µM and the GI50 (HeLa) was 160 nM.

`COc1ccc(NS(=O)(=O)c2c(F)c(Cl)c(F)c(Cl)c2F)cc1` was tested, and the GI50 (MCF7) was 37 nM, the GI50 (NCI/ADR-RES) was 0.058 µM and the GI50 (HeLa) was 96 nM.
